Results taken from the NIST ThermoML archive (doi:10.1021/je034144f).

Conditions: Liquid, Ebulliometric method (Recirculating still)

CC#N [acetonitrile]
Conditions	vapor or sublimation pressure [kPa]
277.92 K	4.323
278.62 K	4.49
281.57 K	5.247
285.38 K	6.385
287.67 K	7.165
290.65 K	8.296
292.75 K	9.182
295.78 K	10.6
300.82 K	13.37
303.81 K	15.27
309.64 K	19.64
315.43 K	24.97
321.12 K	31.31
325.02 K	36.39
331.27 K	45.91
336.41 K	55.17
341.18 K	65.07
345.57 K	75.44
349.33 K	85.31
352.88 K	95.59
354.55 K	100.75
354.67 K	101.12
357.56 K	110.61
360.94 K	122.63
361.61 K	125.13
368.97 K	155.33
371.74 K	168.12
373.17 K	175.04
378.81 K	204.59
384.11 K	235.79
394.29 K	306.28
405.24 K	399.5
415.21 K	502.67
423.68 K	605.6
431.12 K	708.99
437.3 K	804.86
443.5 K	910.82
449.6 K	1025.5
455.74 K	1152
461.87 K	1290.2
468.37 K	1450.3
474.05 K	1602.6
479.15 K	1749.8
484.77 K	1923.9
490.37 K	2110.8
495.75 K	2303.5
501.48 K	2523.7
506.92 K	2748
512.61 K	2999.2
518.01 K	3254.1
523.15 K	3512.9
527.79 K	3760.4
532.08 K	4001.5
535.03 K	4174.6
